{"source": "patent US20140121237A1", "about": "“Methods for Inhibiting Virus Replication” (priority 2011, published 2014)", "key": {"[1]": {"system": "A/WSN/33", "assay": "Mouse infection, lung M gene copy number by qPCR", "type": "in vivo, BALB/c female mice", "conditions": "prophylactic, NSC 95397 […], KN-93 10 mg/kg by gavage, lungs 48 h after infection"}, "[2]": {"system": "A/WSN/33", "type": "cell-based, Influenza A virus"}, "[3]": {"system": "CAMKIIB gene expression", "type": "in vivo, mice", "conditions": "10 mg/kg; 24 h and 48 h post-treatment"}, "[4]": {"conditions": "mouse, in vivo"}, "[5]": {"system": "BEAS2B cells"}, "[6]": {"system": "A/CA/04/09", "assay": "Mouse infection, lung infectious virus titer (TCID50 on MDCK cells)", "type": "in vivo, BALB/c female mice", "conditions": "NSC 95397 […], KN-93 10 mg/kg; for lung infectious virus (TCID50) vs control: prophylactic"}, "[7]": {"system": "A/WSN/33", "conditions": "previously shown (literature); cited from earlier work"}, "[8]": {"system": "A/WSN/33", "assay": "In vitro inhibition assay in BEAS2B cells, virus copies by qRT-PCR", "type": "cell-based, Influenza A virus"}, "[9]": {"system": "A/New Calcdonia/20/90", "assay": "Influenza replication in lungs of mice (qRT-PCR, TCID50)", "type": "in vivo, BALB/c mice", "conditions": "mice treated with 10 or 200 mg/kg", "method": "(§1) Animals. BALB/c female mice (6-8 week-old) were obtained from NCI. All experiments and procedures were Institutional Animal Care and Use Committee (IACUC) approved by the IACUC of UGA. The animals were kept alone in cages. They were allowed free access to water and food both before and during the experiments. All experiments were performed with 5 mice per group and repeated independently at least twice.\n(§2) Drug treatment and infection. Probenecid was dissolved in PBS and injected intraperitoneally at final doses of 10 and 200 mg/kg body weight (about 0.2 ml per animal). Similar studies were done using the same doses but delivering by gavage. […] The treatments were 24 h or 48 h before infection. Prior to infection, mice were anesthetized with Avertin and infected by intranasal instillation with 50 μl of PBS containing 100 PFU of A/WSN/33 or A/New Calcdonia/20/90 influenza virus. The lungs of the mice were collected at 48 hip for qRT-PCR and TCID50. In some studies, Probenecid was administered at 48 h prior to influenza virus infection by tail vein injection (200 ul) where the following groups were evaluated (5 mice/group): Group 1—Probenecid 5.0 mg/kg; Group 2—Probenecid 0.5 mg/kg; Group 3—Probenecid 0.05 mg/kg; Group 4—Positive Control—KN93 (10 mg/kg); Group 5—Negative Control (PBS); Group 6—Probenecid 5.0 mg/kg no infection (gene silencing only).\n(§3) Detection of virus replication. qRT-PCR and TCID50 of the lungs. The lungs of infected animals were longitudinally sectioned. One half of the lung was into TRizol (Invitrogen, Carlsbad, Calif., USA) for isolating total RNA. Another half lung was into MEM/without serum media for TCIT50. The qRT-PCR performance for both of virus replication and the gene expression was like in vitro."}, "[10]": {"system": "A/WSN/33", "assay": "Influenza replication in lungs of mice (qRT-PCR, TCID50)", "type": "in vivo, BALB/c mice", "method": "as §1, §2, §3"}, "[11]": {"conditions": "in vivo; cited from earlier work"}, "[12]": {"system": "A/WSN/33", "assay": "Inhibition assay in A549 cells (qRT-PCR copy number, NP staining)", "type": "cell-based, Influenza A virus", "conditions": "A549 cells treated prophylactically or therapeutically, varying concentrations"}, "[13]": {"system": "A549 cells"}, "[14]": {"system": "A/New Calcdonia/20/90", "assay": "Inhibition assay in A549 cells (qRT-PCR copy number, NP staining)", "type": "cell-based, Influenza A virus", "conditions": "A549 cells treated prophylactically or therapeutically, varying concentrations"}, "[15]": {"system": "SLC22A8 gene", "type": "cell-based, human", "conditions": "A549 cells; varying concentrations; 24 and 48 h"}, "[16]": {"system": "SLC22A8 gene", "set-up": "species or system BALB/c mice", "conditions": "mouse, in vivo"}}, "note": "Like-named read-outs stand apart in the source and are kept apart here.", "data": [{"smiles": "COc1ccc(S(=O)(=O)N(CCO)c2ccccc2CN(C)C/C=C/c2ccc(Cl)cc2)cc1", "note": "[KN-93]", "values": [{"measurement": "lung influenza M gene copy number vs control", "setting": "[1]; 24 h before infection", "result": "significantly (p<0.05) shielded"}, {"measurement": "lung influenza M gene copy number vs control", "setting": "[1]; 48 h before infection", "result": "not statistically significant"}, {"measurement": "number of NP-staining cells compared to control", "setting": "[2]", "result": "not perceptibly affected"}, {"measurement": "CAMKIIB gene expression in lungs", "setting": "[3]", "result": "down-modulation"}, {"measurement": "toxicity in mice treated with drugs only", "setting": "[4]", "result": "no apparent toxicity"}, {"measurement": "cell cytotoxicity", "setting": "[5]", "result": "insignificant"}, {"measurement": "cell cytotoxicity", "setting": "[5]; 250 uM", "result": "negligible"}, {"measurement": "cell cytotoxicity compared to the control", "setting": "[5]; 500 uM (highest drug concentration)", "result": "20-30%"}, {"measurement": "lung infectious virus (TCID50) vs control", "setting": "[6]; 24 h before infection", "result": "significantly (p<0.05) different than control"}, {"measurement": "lung infectious virus (TCID50) vs control", "setting": "[6]; 48 h before infection", "result": "not statistically significant"}, {"measurement": "reduction of lung virus titers vs control", "setting": "[6]; treatment at 24 h or 48 hpi", "result": "no significant (p<0.05) effect"}, {"measurement": "influenza viral replication in MDCK cells", "setting": "[7]", "result": "inhibits A/WSN/33 influenza viral replication in a dose-dependent manner"}, {"measurement": "inhibition at 250 µM", "setting": "[8]; Influenza A virus, WSN, BEAS-2B, read-out: inhibition of virus replication", "result": "> 80", "unit": "%"}, {"measurement": "dose dependence of inhibition of virus replication", "setting": "[8]; pretreatment 1 h, […]", "result": "inhibited influenza replication in a dose-dependent manner"}]}, {"smiles": "CCCN(CCC)S(=O)(=O)c1ccc(C(=O)O)cc1", "note": "[Probenecid, 4-(dipropylsulfamoyl)benzoic acid]", "values": [{"measurement": "influenza virus replication in lungs", "setting": "[9]", "result": "refractory to influenza virus replication"}, {"measurement": "efficacy relative to Tamiflu", "setting": "[10]; 10 mg/kg Probenecid, -24 or +24 h", "result": "as effective as Tamiflu treatment"}, {"measurement": "influenza virus replication in lungs", "setting": "[10]; mice treated prophylactically or therapeutically, varying concentrations", "result": "refractory to influenza virus replication"}, {"measurement": "increase of blood concentrations of Tamiflu (oseltamivir)", "setting": "[11]", "result": "more than double"}, {"measurement": "influenza virus replication", "setting": "[12]", "result": "refractory to influenza virus replication"}, {"measurement": "toxicity", "setting": "[13]", "result": "without causing toxicity"}, {"measurement": "influenza virus replication", "setting": "[14]", "result": "refractory to influenza virus replication"}, {"measurement": "SLC22A8 gene expression", "setting": "[15]", "result": "effectively reduce SLC22A8 gene expression"}, {"measurement": "SLC22A8 gene expression", "setting": "[16]", "result": "effectively reduce SLC22A8 gene expression"}]}]}
